Patent publication US10730911B2, “Backbone-cyclized peptidomimetics with GLP-1R modulating activity” (POLYPHOR AG, priority 2015, dated 2020)
Where a SMILES comes first, the peptide text is derived from it. [ ]: non-standard residue; d: D form. Trp(5-OH) = N[C@@H](Cc1c[nH]c2ccc(O)cc12)C(=O)O; His(π-Bn) = N[C@@H](Cc1cncn1Cc1ccccc1)C(=O)O; Phe(4-CN) = N#Cc1ccc(C[C@H](N)C(=O)O)cc1; Phe(4-NH2) = Nc1ccc(C[C@H](N)C(=O)O)cc1; 3Pal = N[C@@H](Cc1cccnc1)C(=O)O; 4Pal = N[C@@H](Cc1ccncc1)C(=O)O; Cit = NC(=O)NCCC[C@H](N)C(=O)O; Ac6c = NC1(C(=O)O)CCCCC1; Ac5c = NC1(C(=O)O)CCCC1; Aib = CC(C)(N)C(=O)O

target: T1, human glucagon-like peptide-1 receptor (GLP-1R) (Homo sapiens, UniProt P43220); test: Human GLP-1 receptor cell-based assay (flash luminescence, Target Activation phase); conditions: CHO chAMPion cells stably co-expressing human GLP-1R, Photina and cAMP-activated calcium channel; agonist activity; normalization by forskolin at 10 μM; ^a) values from single experiment; read-out: EC50 (μM) Target Activation (TA)
T1 construct: host or cells: CHO chAMPion cells
Source text: CHO chAMPion cells (Axxam SpA; S. Corazza, Assay Drug Dev. Technol. 2009, 7, 304-307) stably co-expressing the human glucagon-like peptide-1 receptor (GLP-1R), the Ca^2+-sensitive photoprotein PHOTINA® (S. Bovolenta et al., J. Biomol. Screen. 2007, 12, 694-704) and a mutated cAMP-activated calcium ion channel (WO2004/083803 A2) were used to monitor GLP-1R signaling after stimulation with an agonist. Activation of the Gas-coupled GPCR GLP-1R was monitored by measuring the flash luminescence of the Ca^2+-sensitive photoprotein as reporter system with FLIPR^TETRA screening instrumentation (Molecular Devices) upgraded with an ICCD Camera (MDC). For data quality check and data analysis the Genedata SCREENER® software was used.
The reference agonist GLP-1 (glucagon-like peptide-1 amide fragment 7-36) and forskolin were purchased from Sigma (cat. G8147 and F6886, respectively) and prepared according to each ligand's specifications. All handling of ligands were done to ensure proper control throughout the experiments. The steps of the implemented workflow and data analysis are mainly as follows:
Stably transfected chAMPion cells are seeded 10000 c/w in 384 MTP in Dulbecco's MEM/nutrient mix F12 (BioWhittaker cat. BE04-687F/U1; 500 mL) supplemented with sodium pyruvate (BioWhittaker cat. BE13-115E; 5 mL of 100 mM solution), HEPES (BioWhittaker cat. BE17-737E; 6.5 mL of 1M solution), sodium bicarbonate (BioWhittaker cat. BE17-613E; 25 mL of 7.5% solution), fetal bovine serum (Euroclone cat. ECS 0180L; 50 mL), penicillin-streptomycin (BioWhittaker cat. DE17-602E; 5 mL of 100×solution), 1 mg/mL G418 (selection antibiotic for GLP-1R) and 200 μg/mL hygromycin in 25 μL/well for 24 hours. On the day of the experiment, plates are removed from the incubator, freed from the growth medium, equilibrated at room temperature for 1 h, loaded with 30 μl/well of Ca^2+ free Tyrode's buffer containing 20 μM coelentrazine and 500 μM IBMX, and incubated for 4 hours at room temperature.
All compounds were tested at 8 concentrations, starting from 50 μM in quadruplicate, intra-plate (dilution step 1:2.15) to determine EC50 values. After incubation, the volume in all the wells is flattened to 20 αL by aspiration with a CYBIO®-VARIO pipettor. First Injection (10 μL of test compounds in Ca^2+ free Tyrode's buffer, DMSO 0.5% v/v and BSA 0.01%; or 10 μL of reference compounds GLP-1 or forskolin in Ca′ free Tyrode's buffer, DMSO 0.5% v/v and BSA 0.01%) is performed by the FLIPR^TETRA and the kinetic response is optionally monitored over a period of 60 seconds. Incubation for 30 minutes at room temperature is followed by the Second Injection (Tyrode's buffer+10 mM CaCl2)) and the kinetic response is monitored over a period of 60 seconds.
The kinetic response is divided into two distinct phases: monitoring the kinetic response after the First Injection, termed Compound Addition (CA), and monitoring the kinetic response after the Second Injection of 10 mM CaCl2, termed Target Activation (TA). Agonist activity of compounds is evaluated in the Target Activation (TA) phase and it is based on normalization to TA activation by forskolin at 10 μM or GLP-1 at 3.16 nM (EC100)
A good correlation was observed between EC50, data normalized by forskolin and by GLP-1.

T1 sequence (P43220 24-463): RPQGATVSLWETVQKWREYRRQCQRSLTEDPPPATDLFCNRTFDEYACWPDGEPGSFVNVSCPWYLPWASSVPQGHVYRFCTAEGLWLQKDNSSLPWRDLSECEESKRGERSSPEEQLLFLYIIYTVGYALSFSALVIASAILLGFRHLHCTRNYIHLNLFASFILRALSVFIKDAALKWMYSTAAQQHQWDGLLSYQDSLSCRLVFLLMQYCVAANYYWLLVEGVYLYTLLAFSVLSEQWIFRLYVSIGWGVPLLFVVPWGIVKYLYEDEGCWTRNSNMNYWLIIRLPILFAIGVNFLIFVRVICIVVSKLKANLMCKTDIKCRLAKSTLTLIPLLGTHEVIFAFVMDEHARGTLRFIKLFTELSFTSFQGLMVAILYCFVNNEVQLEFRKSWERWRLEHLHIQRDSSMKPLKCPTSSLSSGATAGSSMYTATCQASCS

SMILES | EC50 [µM]
C[C@@H]1NC(=O)[C@H](Cc2ccc(O)cc2)NC(=O)[C@H](CCC(N)=O)NC(=O)[C@H](Cc2c[nH]c3ccccc23)NC(=O)[C@H](Cc2ccccc2)NC(=O)C2(CCCCC2)NC(=O)[C@H]2CCCN2C(=O)[C@H](Cc2ccc(N)cc2)NC(=O)[C@H](CCC(=O)O)NC(=O)[C@H](Cc2c[nH]c3ccccc23)NC1=O [compound 30, cyclo(-Phe-Trp-Gln-Tyr-Ala-Trp-Glu-Phe(4NH2)-^DPro-Chx-)] (cyclo(FWQYAWE[Phe(4-NH2)][dP][Ac6c])) | 0.63
CC(C)C[C@@H]1NC(=O)[C@H](CCC(=O)O)NC(=O)[C@H](Cc2ccccc2)NC(=O)C2(CCCCC2)NC(=O)[C@H]2CCCN2C(=O)[C@H](Cc2ccccc2)NC(=O)[C@H](CCC(=O)O)NC(=O)[C@H](Cc2c[nH]c3ccccc23)NC(=O)[C@H](C)NC(=O)[C@H](Cc2ccc(O)cc2)NC1=O [compound 31, cyclo(-Phe-Glu-Leu-Tyr-Ala-Trp-Glu-Phe-^DPro-Chx-)] (cyclo(FELYAWEF[dP][Ac6c])) | 0.68
COc1ccc(C[C@@H]2NC(=O)[C@H](Cc3ccccc3)NC(=O)C3(CCCCC3)NC(=O)[C@H]3CCCN3C(=O)[C@H](Cc3ccc(O)cc3)NC(=O)[C@H](CCC(=O)O)NC(=O)[C@H](Cc3c[nH]c4ccccc34)NC(=O)[C@H](C)NC(=O)[C@H](Cc3ccc(O)cc3)NC(=O)[C@H](CCC(N)=O)NC2=O)cc1 [compound 32, cyclo(-Phe-Tyr(Me)-Gln-Tyr-Ala-Trp-Glu-Tyr-^DPro-Chx-)] (cyclo(FY(Me)QYAWEY[dP][Ac6c])) | 0.92 ± 0.31
C[C@@H]1NC(=O)[C@H](Cc2ccc(O)cc2)NC(=O)[C@H](CCC(N)=O)NC(=O)[C@H](Cc2ccncc2)NC(=O)[C@H](Cc2ccccc2)NC(=O)C2(CCCCC2)NC(=O)[C@H]2CCCN2C(=O)[C@H](Cc2ccc(O)cc2)NC(=O)[C@H](CCC(=O)O)NC(=O)[C@H](Cc2c[nH]c3ccccc23)NC1=O [compound 33, cyclo(-Phe-4Pal-Gln-Tyr-Ala-Trp-Glu-Tyr-^DPro-Chx-)] (cyclo(F[4Pal]QYAWEY[dP][Ac6c])) | 0.99 ± 0.37
COc1ccc(C[C@@H]2NC(=O)[C@H](CC(C)C)NC(=O)[C@H](CCC(=O)O)NC(=O)[C@H](Cc3ccccc3)NC(=O)C3(CCCCC3)NC(=O)[C@H]3CCCN3C(=O)[C@H](Cc3ccc(OC)cc3)NC(=O)[C@H](CCC(=O)O)NC(=O)[C@H](Cc3c[nH]c4ccccc34)NC(=O)[C@H](C)NC2=O)cc1 [compound 34, cyclo(-Phe-Glu-Leu-Tyr(Me)-Ala-Trp-Glu-Tyr(Me)-^DPro-Chx-)] (cyclo(FELY(Me)AWEY(Me)[dP][Ac6c])) | 0.73
C[C@@H]1NC(=O)[C@H](Cc2ccc(O)cc2)NC(=O)[C@H](CCC(N)=O)NC(=O)[C@H](Cc2c[nH]c3ccc(O)cc23)NC(=O)[C@H](Cc2ccccc2)NC(=O)C2(CCCCC2)NC(=O)[C@H]2CCCN2C(=O)[C@H](Cc2ccc(O)cc2)NC(=O)[C@H](CCC(=O)O)NC(=O)[C@H](Cc2c[nH]c3ccccc23)NC1=O [compound 35, cyclo(-Phe-Trp(5OH)-Gln-Tyr-Ala-Trp-Glu-Tyr-^DPro-Chx-)] (cyclo(F[Trp(5-OH)]QYAWEY[dP][Ac6c])) | 1.1 ± 0.5
CC(C)C[C@@H]1NC(=O)[C@H](CCC(=O)O)NC(=O)[C@H](Cc2ccccc2)NC(=O)C2(CCCCC2)NC(=O)[C@H]2CCCN2C(=O)[C@H](Cc2cncn2Cc2ccccc2)NC(=O)[C@H](CCC(=O)O)NC(=O)[C@H](Cc2c[nH]c3ccccc23)NC(=O)[C@H](C)NC(=O)[C@H](Cc2ccc(O)cc2)NC1=O [compound 36, cyclo(-Phe-Glu-Leu-Tyr-Ala-Trp-Glu-His(Bn)-^DPro-Chx-)] (cyclo(FELYAWE[His(π-Bn)][dP][Ac6c])) | 0.85
CC(C)C[C@@H]1NC(=O)[C@H](CCC(=O)O)NC(=O)[C@H](Cc2ccccc2)NC(=O)C2(CCCCC2)NC(=O)[C@H]2CCCN2C(=O)[C@H](Cc2ccc(O)cc2)NC(=O)[C@H](CCC(=O)O)NC(=O)[C@H](Cc2c[nH]c3ccccc23)NC(=O)[C@H](C)NC(=O)[C@H](Cc2ccc(C#N)cc2)NC1=O [compound 37, cyclo(-Phe-Glu-Leu-Phe(4CN)-Ala-Trp-Glu-Tyr-^DPro-Chx-)] (cyclo(FEL[Phe(4-CN)]AWEY[dP][Ac6c])) | 0.88
CC(C)C[C@@H]1NC(=O)[C@H](CCC(=O)O)NC(=O)[C@H](Cc2ccccc2)NC(=O)C2(CCCCC2)NC(=O)[C@H]2CCCN2C(=O)[C@H](Cc2ccc(O)cc2)NC(=O)[C@H](CCCNC(N)=O)NC(=O)[C@H](Cc2c[nH]c3ccccc23)NC(=O)[C@H](C)NC(=O)[C@H](Cc2ccc(O)cc2)NC1=O [compound 38, cyclo(-Phe-Glu-Leu-Tyr-Ala-Trp-Cit-Tyr-^DPro-Chx-)] (cyclo(FELYAW[Cit]Y[dP][Ac6c])) | 0.93
CC(C)C[C@@H]1NC(=O)[C@H](CCC(=O)O)NC(=O)[C@H](Cc2ccccc2)NC(=O)C2(CCCCC2)NC(=O)[C@H]2CCCN2C(=O)[C@H](Cc2c[nH]cn2)NC(=O)[C@H](CCC(=O)O)NC(=O)[C@H](Cc2c[nH]c3ccccc23)NC(=O)[C@H](C)NC(=O)[C@H](Cc2ccc(O)cc2)NC1=O [compound 39, cyclo(-Phe-Glu-Leu-Tyr-Ala-Trp-G lu-H is-^DP ro-Chx-)] (cyclo(FELYAWEH[dP][Ac6c])) | 1 ± 0.1
CC(C)C[C@@H]1NC(=O)[C@H](CCC(N)=O)NC(=O)[C@H](Cc2ccccc2)NC(=O)C2(CCCCC2)NC(=O)[C@H]2CCCN2C(=O)[C@H](Cc2ccc(O)cc2)NC(=O)[C@H](CCC(=O)O)NC(=O)[C@H](Cc2c[nH]c3ccccc23)NC(=O)[C@H](C)NC(=O)[C@H](Cc2ccc(O)cc2)NC1=O [compound 40, cyclo(-Phe-Gln-Leu-Tyr-Ala-Trp-Glu-Tyr-^DPro-Chx-)] (cyclo(FQLYAWEY[dP][Ac6c])) | 1.2 ± 0.6
CC(C)C[C@@H]1NC(=O)[C@H](CCC(=O)O)NC(=O)[C@H](Cc2ccccc2)NC(=O)C2(CCCCC2)NC(=O)[C@H]2CCCN2C(=O)[C@H](Cc2cccnc2)NC(=O)[C@H](CCC(=O)O)NC(=O)[C@H](Cc2c[nH]c3ccccc23)NC(=O)[C@H](C)NC(=O)[C@H](Cc2ccc(O)cc2)NC1=O [compound 41, cyclo(-Phe-Glu-Leu-Tyr-Ala-Trp-Glu-3Pal-^DPro-Chx-)] (cyclo(FELYAWE[3Pal][dP][Ac6c])) | 0.83 ± 0.6
CC(C)C[C@@H]1NC(=O)[C@H](CCC(=O)O)NC(=O)[C@H](Cc2ccccc2)NC(=O)C2(CCCCC2)NC(=O)[C@H]2CCCN2C(=O)[C@H](CCCNC(=N)N)NC(=O)[C@H](CCC(=O)O)NC(=O)[C@H](Cc2c[nH]c3ccccc23)NC(=O)[C@H](C)NC(=O)[C@H](Cc2ccc(O)cc2)NC1=O [compound 42, cyclo(-Phe-Glu-Leu-Tyr-Ala-Trp-Glu-Arg-^DPro-Chx-)] (cyclo(FELYAWER[dP][Ac6c])) | 2.2 ± 1
CC(C)C[C@@H]1NC(=O)[C@H](CC(C)C)NC(=O)[C@H](CCC(=O)O)NC(=O)[C@H](Cc2ccccc2)NC(=O)C2(CCCC2)NC(=O)[C@H]2CCCN2C(=O)[C@H](Cc2ccccc2)NC(=O)[C@H](CCC(=O)O)NC(=O)[C@H](Cc2c[nH]c3ccccc23)NC(=O)[C@H](C)NC1=O [compound 44, cyclo(-Phe-Glu-Leu-Leu-Ala-Trp-Glu-Phe-^DPro-Cyp-)] (cyclo(FELLAWEF[dP][Ac5c])) | 2.9 ± 0.7
CC(C)C[C@@H]1NC(=O)[C@H](CC(C)C)NC(=O)[C@H](CCC(=O)O)NC(=O)[C@H](Cc2ccccc2)NC(=O)C(C)(C)NC(=O)[C@H]2CCCN2C(=O)[C@H](Cc2ccccc2)NC(=O)[C@H](CCC(=O)O)NC(=O)[C@H](Cc2c[nH]c3ccccc23)NC(=O)[C@H](C)NC1=O [compound 45, cyclo(-Phe-Glu-Leu-Leu-Ala-Trp-Glu-Phe-^DPro-Aib-)] (cyclo(FELLAWEF[dP][Aib])) | 1.8
